According to patent US20180116224A1, “PESTICIDAL COMPOSITIONS AND RELATED METHODS” (priority 2015, published 2018):

Test system: green peach aphid (Myzus persicae)
Test: pesticidal activity against green peach aphid on cabbage plants after soil treatment
Type: in vivo
Conditions: for number of live GPA aphids: 6.25 ppm loading, no soil conditioner
Experimental: Each tested compositions was prepared by mixing a predetermined amount of the CLOSER® SC insecticide (a sulfoxaflor concentrate having a sulfoxaflor concentration of 240 g/L) with a predetermined amount of the organic soil conditioner ACCELL®-STR in an aqueous medium.
The compositions containing different amounts of sulfoxaflor and the organic soil conditioner ACCELL®-STR were prepared as shown in TABLE 1. For example, the “Sulfoxaflor at 6.25 ppm” composition contained about 0.003% weight of sulfoxaflor based on total weight of the composition (i.e., 6.25 ppm of sulfoxaflor per one gram of final soil mixture). “Sulfoxaflor at 6.25 ppm+ACCELL®-STR at 384 ppm” composition contained about 0.003% weight of sulfoxaflor based on total weight of the composition (i.e., 6.25 ppm of sulfoxaflor per one gram of final soil mixture), and about 0.225% weight of the organic soil conditioner ACCELL®-STR based on total weight of the composition (i.e., 384 ppm per one gram of the final soil mixture; 1500 ppm per one gram of the total soil liquid).
The imidacloprid pesticide PROVADO® 1.6 from Bayer CropScience LP (North Carolina, USA) was used as a standard commercial pesticidal composition for aphid control. The imidacloprid pesticide PROVADO® 1.6 was tested at the same loading as that used for the sulfoxaflor, which was 6.25 ppm per gram of final soil mixture.
In this EXAMPLE 4, water was tested as a control composition. Furthermore, an aqueous solution of the organic soil conditioner ACCELL®-STR was tested.
Cabbage plants (Brassica oleracea capitata L) of uniform size (two new leaf stage) infested with green peach aphids (Myzus persicae) (“GPA”) were used as the study models according to the following procedure:
Cabbage seeds were planted in 3-inch pots containing a peat-based METRO MIX 360® potting soil available from SUN GRO® Horticulture Canada, Ltd. The seeds were propagated in greenhouse zone G4, located in the R&D building of Dow AgroSciences (Indianapolis, Ind., USA), at 26° C. with a relative humidity of 53%. Natural light was supplemented with 1,000-watt metal halide overhead lamps with an average illumination of about 500 μE/m^2.s photosynthetic active radiation for 16 consecutive hours each day.
Each of the 1-ounce clear cups was filled with about 30 grams of the inoculated Midwest field soil having the components as shown in TABLE 2. […] The soil moisture of the Midwest field soil was about 15% as measured by Mettler LJ16 Moisture Analyzer (15 minutes and 100° C.).
The Midwest field soil in each selected 1-ounce cup was treated with about 9 mL of the selected composition using a 10 mL pipette. […]
The pesticidal activity against GPA was determined three days after infestation, by counting the number of live GPA aphids present on each cabbage plant. […]

[1] = dose rate 6.25 ppm sulfoxaflor alone

C[C@@H](c1ccc(C(F)(F)F)nc1)[S@](C)(=O)=NC#N (racemic) [Sulfoxaflor, [methyl(oxo){1-[6-(trifluoromethyl)-3-pyridyl]ethyl}-λ^6-sulfanylidene]cyanamide]
number of live GPA aphids (DAT of 21 days, counted three days after infestation): about 10
number of live GPA aphids (DAT of 28 days): about 90
% Control at DAT of 21 days [1]: 91.19%
% Control at DAT of 28 days [1]: 0%
